The term EC50 denotes the concentration that produces a half-maximal response. In general, inhibition in vivo refers to how much of the control response was suppressed. One may read the logD as the decadic logarithm of the distribution of all forms, ionised or not, between an organic phase and buffer at a given pH. A high value points to a more lipophilic compound. For orientation: kinetic solubility means the concentration staying in solution when a stock, usually in DMSO, is diluted into the medium. A word on the Papp: it is the rate of passage across a membrane or cell layer, normalised by area and donor concentration.

Consider eight molecules from ChEMBL document CHEMBL3351419, “Orally bioavailable 6-chloro-7-methoxy-4(1H)-quinolones efficacious against multiple stages of Plasmodium” (J Med Chem, 2014).

Molecules are shown by their SMILES. Values after ≈ are worked out from the molar mass of the structure shown.

Data set [1] concerns Liver microsome. Put plainly: Intrinsic clearance in human liver microsomes at 1 uM by LC-MS analysis. It counts as ADME. As to conditions: microsomes, 1 µM. On the technique in general: Microsomes from liver hold many membrane-bound enzymes, among them those of drug oxidation.
The subject of data set [2] is J774. Nature of the data set: Cytotoxicity against mouse J774 cells after 72 hrs by CellTiter 96 assay. Format: cell-based. As to conditions: J774, 72 h.
Data set [3] can be described thus: Resistance index, ratio of EC50 for multi-drug-resistant Plasmodium falciparum TM90-C2B infected in human type A+ erythrocytes to EC50 for multi-drug-resistant Plasmodium falciparum W2 infected in human type A+ erythrocytes. Format: functional.
The subject of data set [4] is Plasmodium berghei. Nature of the data set: Antimalarial activity against Plasmodium berghei ANKA expressing GFP infected in Balb/c mouse assessed as inhibition of parasitemia at 50 mg/kg, po qd administered as single dose on day 3 to 5 of exposure measured on day 6 post exposure by in vivo thomson test relative to control. Format: functional.
Data set [5] can be described thus: Cytotoxicity index, ratio of EC50 for mouse J774 cells to EC50 for multi-drug-resistant Plasmodium falciparum TM90-C2B infected in human type A+ erythrocytes. Format: toxicity, cell-based. The note with it: read-out: Ratio EC50.
Data set [6] deals with Plasmodium berghei. Nature of the data set: Antimalarial activity against Plasmodium berghei ANKA expressing GFP infected in Balb/c mouse assessed as mouse survival at 50 mg/kg, po qd administered as single dose on day 3 to 5 of exposure measured on day 6 post exposure by in vivo thomson test relative to control. Format: functional.
In data set [7] the test system is Plasmodium falciparum. Put plainly: Antimalarial activity against multi-drug-resistant Plasmodium falciparum TM90-C2B infected in human type A+ erythrocytes assessed as growth inhibition after 72 hrs by SYBR Green I assay. It counts as functional, organism-based.
The test system of data set [8] is Plasmodium falciparum. Put plainly: Antimalarial activity against multi-drug-resistant Plasmodium falciparum W2 infected in human type A+ erythrocytes assessed as growth inhibition after 72 hrs by SYBR Green I assay. It counts as functional, organism-based. The note with it: W2, 72 h.
Data set [9] has as its system Plasmodium berghei. Nature of the data set: Antimalarial activity against Plasmodium berghei ANKA expressing GFP infected in Balb/c mouse assessed as mouse survival at 10 mg/kg, po qd administered as single dose on day 3 to 5 of exposure measured on day 6 post exposure by in vivo thomson test relative to control. Format: functional.
The conditions of data set [10]: octanol/water, pH 7.4.
For data set [11], the system named is Plasmodium berghei. Put plainly: Antimalarial activity against Plasmodium berghei ANKA expressing GFP infected in Balb/c mouse assessed as inhibition of parasitemia at 10 mg/kg, po qd administered as single dose on day 3 to 5 of exposure measured on day 6 post exposure by in vivo thomson test relative to control. Format: functional.
Data set [12] concerns Plasmodium berghei. Nature of the data set: Antimalarial activity against Plasmodium berghei ANKA expressing GFP infected in Balb/c mouse assessed as mouse cured from disease at 10 mg/kg, po qd administered as single dose on day 3 to 5 of exposure measured on day 30 post exposure by in vivo thomson test relative to control. It counts as functional.
Data set [13] concerns Plasmodium berghei. Put plainly: Antimalarial activity against Plasmodium berghei ANKA expressing GFP infected in Balb/c mouse assessed as mouse cured from disease at 50 mg/kg, po qd administered as single dose on day 3 to 5 of exposure measured on day 30 post exposure by in vivo thomson test relative to control. It counts as functional.
The nature of data set [14]: Aqueous solubility of the compound at pH 7.4. Format: physicochemical. As to conditions: buffer.
Data set [15] can be described thus: in vitro. As to conditions: pampa, pH 7.4.
Description: (§1) Effective permeability of the compound at pH 7.4 by PAMPA
The subject of data set [16] is Liver microsome. Nature of the data set: Half life in human liver microsomes at 1 uM by LC-MS analysis. It counts as ADME.
The subject of data set [17] is Plasmodium berghei. Put plainly: Antimalarial activity against Plasmodium berghei ANKA expressing GFP infected in Balb/c mouse assessed as mouse survival at 3 mg/kg, po qd administered as single dose on day 3 to 5 of exposure measured on day 6 post exposure by in vivo thomson test relative to control. It counts as functional.
Data set [18] relates to Plasmodium berghei. Nature of the data set: Antimalarial activity against Plasmodium berghei ANKA expressing GFP infected in Balb/c mouse assessed as mouse cured from disease at 3 mg/kg, po qd administered as single dose on day 3 to 5 of exposure measured on day 30 post exposure by in vivo thomson test relative to control. It counts as functional.
For data set [19], the system named is Plasmodium berghei. Nature of the data set: Antimalarial activity against Plasmodium berghei ANKA expressing GFP infected in Balb/c mouse assessed as inhibition of parasitemia at 3 mg/kg, po qd administered as single dose on day 3 to 5 of exposure measured on day 6 post exposure by in vivo thomson test relative to control. It counts as functional.
The conditions of data set [20]: pampa, pH 7.4.
Description: as §1
Data set [21] relates to Plasmodium berghei. Put plainly: Antimalarial activity against Plasmodium berghei ANKA expressing GFP infected in Balb/c mouse assessed as mouse survival at 1 mg/kg, po qd administered as single dose on day 3 to 5 of exposure measured on day 6 post exposure by in vivo thomson test relative to control. It counts as functional.
The test system of data set [22] is Plasmodium berghei. Nature of the data set: Antimalarial activity against Plasmodium berghei ANKA expressing GFP infected in Balb/c mouse assessed as inhibition of parasitemia at 1 mg/kg, po qd administered as single dose on day 3 to 5 of exposure measured on day 6 post exposure by in vivo thomson test relative to control. Format: functional.
For data set [23], the system named is Plasmodium berghei. Nature of the data set: Antimalarial activity against Plasmodium berghei ANKA expressing GFP infected in Balb/c mouse assessed as inhibition of parasitemia at 0.3 mg/kg, po qd administered as single dose on day 3 to 5 of exposure measured on day 6 post exposure by in vivo thomson test relative to control. It counts as functional.
Data set [24] relates to Plasmodium berghei. Put plainly: Antimalarial activity against Plasmodium berghei ANKA expressing GFP infected in Balb/c mouse assessed as mouse survival at 0.3 mg/kg, po qd administered as single dose on day 3 to 5 of exposure measured on day 6 post exposure by in vivo thomson test relative to control. It counts as functional.
Data set [25] relates to Liver. Nature of the data set: Half life in mouse liver microsomes at 1 uM by LC-MS analysis. It counts as ADME.

Take `CCc1c(C)[nH]c2cc(OC)c(Cl)cc2c1=O`: the CLint_mic in data set [1] turned out to be 56 µL/min/mg.
In the case of `COc1cc2[nH]c(C)c(-c3ccccc3)c(=O)c2cc1Cl`, the EC50 in data set [2] was greater than 33400 nM. Besides, in data set [3], the “Ratio EC50” value was found to be 0.59. Moreover, the inhibition in vivo at 50 mg/kg in data set [4] was less than 1%. The molecule also displayed a CLint_mic in data set [1] of 17 µL/min/mg. Further, in data set [5], the selectivity ratio was greater than 2170. Besides, the mouse survival time at 50 mg/kg in data set [6] stood at 0 days.
`COc1cc2[nH]c(C)c(-c3ccncc3)c(=O)c2cc1Cl`: the EC50 in [7] is 219 nM; in data set [8], 128 nM; in data set [2] it was greater than 33300 nM. Moreover, in data set [3], the “Ratio EC50” value stood at 1.71. In addition, the CLint_mic in data set [1] stood at 15 µL/min/mg. In addition, the selectivity ratio in [5] was greater than 152.
For the molecule `COc1cc2[nH]c(C)c(-c3ccc(Cl)cc3C)c(=O)c2cc1Cl`, the survival time at 10 mg/kg in data set [9] amounted to 5 days. For the same molecule, the figures for the EC50 in data set [8] and in data set [2] were 14.2 nM and greater than 28700 nM, respectively. This molecule also showed a logD in data set [10] of 2.9. For the same molecule, the inhibition in vivo at 50 mg/kg in [4] is 71%. Also, the inhibition in vivo at 10 mg/kg in [11] turned out to be 95%. Besides, the Activity in data set [12] and in data set [13] was 0% each time. In data set [14], this molecule showed a kinetic solubility of less than 2 µM. The mouse survival time at 50 mg/kg in [6] was 5 days. The same molecule had a Papp in [15] of 3690 nm/s.
On to `COc1cc2[nH]c(C)c(-c3ccc(C(F)(F)F)cc3C)c(=O)c2cc1Cl`, for which, in data set [9], the survival time at 10 mg/kg stood at 6 days. Moreover, the EC50 in data set [7] was 0.578 nM; in data set [8], 2.02 nM; in data set [2] it was greater than 26200 nM. The molecule also gave a logD in [10] of 2.7. In [3], the “Ratio EC50” value came to 0.29. In addition, the inhibition in vivo at 10 mg/kg in data set [11] worked out at 80%. This molecule registered a t1/2 in data set [16] of 3.93 h. Also, the survival time at 3 mg/kg in [17] stood at 23 days. In addition, the Activity in data set [18] stood at 100%; in data set [12], 0%; in data set [13], 0%. Moreover, the selectivity ratio in data set [5] was greater than 45300. The molecule further gave a solubility (kinetic) in [14] of less than 2 µM. In [6], the mouse survival time at 50 mg/kg came out at 0 days. In data set [19], the inhibition in vivo at 3 mg/kg stood at 84%.
Molecule `COc1cc2[nH]c(C)c(-c3ccc(-c4ccc(C(F)(F)F)cc4F)nc3)c(=O)c2cc1Cl` returned a Peff in data set [20] of 10700 nm/s. In addition, in data set [9], the survival time at 10 mg/kg came out at 23 days. Moreover, the EC50 was 1.06 nM in [7], 0.602 nM in [8] and greater than 21600 nM in data set [2]. In addition, in data set [21], the survival at 1 mg/kg was found to be 23 days. Further, the logD in [10] is given as 3.7. The “Ratio EC50” value in data set [3] came to 1.76. In addition, the inhibition in vivo at 1 mg/kg in data set [22] amounted to 94.5%. Also, the inhibition in vivo at 10 mg/kg in data set [11] is 95.2%. For the same molecule, in [17], the survival time at 3 mg/kg was found to be 23 days. Besides, the Activity in data set [18] and in data set [12] was 100% each time. The inhibition in vivo at 0.3 mg/kg in [23] is 94.3%. In [5], the selectivity ratio was greater than 20400. In addition, the survival at 0.3 mg/kg in data set [24] was found to be 23 days. The solubility (kinetic) in data set [14] was in the range of 6 to 12 µM (≈ 2.78 to 5.55 µg/mL). In data set [19], the inhibition in vivo at 3 mg/kg was determined as 96.3%.
In the case of `COc1cc2[nH]c(C)c(-c3ccc(-c4ccc(OC(F)(F)F)cc4)nc3)c(=O)c2cc1Cl`, the survival time at 10 mg/kg in data set [9] worked out at 23 days. Further, the EC50 in data set [7] was 2.03 nM; in data set [8] it was 0.686 nM; in data set [2], greater than 21700 nM. The survival at 1 mg/kg in data set [21] is 23 days. The molecule further registered a logD in data set [10] of 3.7. Further, in data set [3], the “Ratio EC50” value was 2.95. The inhibition in vivo at 1 mg/kg in data set [22] turned out to be 95.8%. The inhibition in vivo at 10 mg/kg in [11] was 97.3%. Moreover, in [17], the survival time at 3 mg/kg came to 23 days. Moreover, the Activity in data set [18] is 80%; in data set [12], 100%. Besides, the inhibition in vivo at 0.3 mg/kg in data set [23] was found to be 93.9%. Also, in data set [5], the selectivity ratio is greater than 10700. For the same molecule, the survival at 0.3 mg/kg in [24] amounted to 23 days. The solubility (kinetic) in [14] fell in the range of 6 to 12 µM (≈ 2.77 to 5.53 µg/mL). The inhibition in vivo at 3 mg/kg in data set [19] amounted to 97.3%.
`CCCCCCCc1c(C)nc2cc(OC)ccc2c1O` returned a t1/2 in [25] of 7.9 min.
